Reference: BindingDB's records for doi:10.7270/Q22R3Q30 (Nmmlsc, 2009)

Target: Cell division control protein 42 homolog (Homo sapiens, UniProt P60953)
Assay: Cdc42 activated mutant GTP-binding inhibitors, SAR follow-up, biochemical, bead-based multiplex flow cytometry, additional SAR set (AID 2021)

Chain of Cell division control protein 42 homolog (P60953 whole entry): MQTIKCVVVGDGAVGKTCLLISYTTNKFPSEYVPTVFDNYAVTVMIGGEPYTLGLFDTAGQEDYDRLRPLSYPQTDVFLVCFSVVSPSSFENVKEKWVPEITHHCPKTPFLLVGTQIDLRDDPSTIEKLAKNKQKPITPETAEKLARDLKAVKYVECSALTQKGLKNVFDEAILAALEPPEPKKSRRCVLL

Row | Compound | Ki
1 | O=C1NC(=O)/C(=C2/C(=O)Nc3ccccc32)N1 | 0.81 µM
2 | O=C1N=c2c(Br)cccc2=C1c1[nH]c2ccccc2c1NO [7-bromanyl-3-[3-(oxidanylamino)-1H-indol-2-yl]indol-2-one] | 8.52 µM
